Data published in ChEMBL document CHEMBL1155722, “Biological and mechanistic activities of xanthorrizol and 4-(1',5'-dimethylhex-4'-enyl)-2-methylphenol isolated from Iostephane heterophylla” (2001).
In brackets after ≈: the same amount, converted by molar mass.

What was measured:
Escherichia coli [1] = assay: Inhibition of RNA synthesis in Escherichia coli assessed as incorporation of [3H]uridine at 128 ug/mL by LKB Betaplate scintillation counter relative to control; assay type: functional; set-up: scale not given: the % may be the effect or the level left
Escherichia coli [2] = assay: Inhibition of RNA synthesis in Escherichia coli assessed as incorporation of [3H]uridine at 64 ug/mL by LKB Betaplate scintillation counter relative to control; assay type: functional; set-up: scale not given: the % may be the effect or the level left
Escherichia coli [3] = assay: Inhibition of RNA synthesis in Escherichia coli assessed as incorporation of [3H]uridine at 32 ug/mL by LKB Betaplate scintillation counter relative to control; assay type: functional; set-up: scale not given: the % may be the effect or the level left
Escherichia coli [4] = assay: Inhibition of RNA synthesis in Escherichia coli assessed as incorporation of [3H]uridine at 16 ug/mL by LKB Betaplate scintillation counter relative to control; assay type: functional; set-up: scale not given: the % may be the effect or the level left
Escherichia coli [5] = assay: Inhibition of RNA synthesis in Escherichia coli assessed as incorporation of [3H]uridine at 8 ug/mL by LKB Betaplate scintillation counter relative to control; assay type: functional; set-up: scale not given: the % may be the effect or the level left
Escherichia coli [6] = assay: Inhibition of protein synthesis in Escherichia coli assessed as incorporation of [3H]amino acid at 128 ug/mL by LKB Betaplate scintillation counter relative to control; assay type: functional; set-up: scale not given: the % may be the effect or the level left
Escherichia coli [7] = assay: Inhibition of protein synthesis in Escherichia coli assessed as incorporation of [3H]amino acid at 64 ug/mL by LKB Betaplate scintillation counter relative to control; assay type: functional; set-up: scale not given: the % may be the effect or the level left
Escherichia coli [8] = assay: Inhibition of protein synthesis in Escherichia coli assessed as incorporation of [3H]amino acid at 32 ug/mL by LKB Betaplate scintillation counter relative to control; assay type: functional; set-up: scale not given: the % may be the effect or the level left
Escherichia coli [9] = assay: Inhibition of protein synthesis in Escherichia coli assessed as incorporation of [3H]amino acid at 16 ug/mL by LKB Betaplate scintillation counter relative to control; assay type: functional; set-up: scale not given: the % may be the effect or the level left
Escherichia coli [10] = assay: Inhibition of protein synthesis in Escherichia coli assessed as incorporation of [3H]amino acid at 8 ug/mL by LKB Betaplate scintillation counter relative to control; assay type: functional; set-up: scale not given: the % may be the effect or the level left
Klebsiella pneumoniae = assay: Antimicrobial activity against Klebsiella pneumoniae 425 after 18 hrs by microbroth dilution method; assay type: functional; conditions: Klebsiella pneumoniae, 425, 18 h
Pseudomonas aeruginosa = assay: Antimicrobial activity against Pseudomonas aeruginosa 339 after 18 hrs by microbroth dilution method; assay type: functional; conditions: Pseudomonas aeruginosa, 339, 18 h
Candida albicans = assay: Antimicrobial activity against Candida albicans 54 after 18 hrs by microbroth dilution method; assay type: functional; conditions: Candida albicans, 54, 18 h
Escherichia coli [11] = assay: Inhibition of DNA synthesis in Escherichia coli assessed as incorporation of [3H]thymidine at 128 ug/mL by LKB Betaplate scintillation counter relative to control; assay type: functional; set-up: scale not given: the % may be the effect or the level left
Escherichia coli [12] = assay: Inhibition of DNA synthesis in Escherichia coli assessed as incorporation of [3H]thymidine at 64 ug/mL by LKB Betaplate scintillation counter relative to control; assay type: functional; set-up: scale not given: the % may be the effect or the level left
Escherichia coli [13] = assay: Inhibition of DNA synthesis in Escherichia coli assessed as incorporation of [3H]thymidine at 32 ug/mL by LKB Betaplate scintillation counter relative to control; assay type: functional; set-up: scale not given: the % may be the effect or the level left
Escherichia coli [14] = assay: Inhibition of DNA synthesis in Escherichia coli assessed as incorporation of [3H]thymidine at 16 ug/mL by LKB Betaplate scintillation counter relative to control; assay type: functional; set-up: scale not given: the % may be the effect or the level left
Escherichia coli [15] = assay: Inhibition of DNA synthesis in Escherichia coli assessed as incorporation of [3H]thymidine at 8 ug/mL by LKB Betaplate scintillation counter relative to control; assay type: functional; set-up: scale not given: the % may be the effect or the level left
Staphylococcus aureus [16] = assay: Antimicrobial activity against methicillin-sensitive Staphylococcus aureus 375 after 18 hrs by microbroth dilution method; assay type: functional; conditions: Staphylococcus aureus, 375, 18 h
Staphylococcus aureus [17] = assay: Antimicrobial activity against methicillin-resistant Staphylococcus aureus 310 after 18 hrs by microbroth dilution method; assay type: functional; conditions: Staphylococcus aureus, 310, 18 h
Staphylococcus aureus [18] = assay: Antimicrobial activity against Staphylococcus aureus ATCC 25923 after 18 hrs by microbroth dilution method; assay type: functional; conditions: ATCC 25923, 18 h
Enterococcus faecium [19] = assay: Antimicrobial activity against vancomycin-resistant Enterococcus faecium 379 after 18 hrs by microbroth dilution method; assay type: functional; conditions: Enterococcus faecium, 379, 18 h
Enterococcus faecium [20] = assay: Antimicrobial activity against Enterococcus faecium 436 after 18 hrs by microbroth dilution method; assay type: functional; conditions: Enterococcus faecium, 436, 18 h
Bacillus subtilis = assay: Antimicrobial activity against Bacillus subtilis 327 after 18 hrs by microbroth dilution method; assay type: functional; conditions: Bacillus subtilis, 327, 18 h
Escherichia coli [21] = assay: Antimicrobial activity against Escherichia coli 389 after 18 hrs by microbroth dilution method; assay type: functional; conditions: Escherichia coli, 389, 18 h
Escherichia coli [22] = assay: Antimicrobial activity against Escherichia coli 442 after 18 hrs by microbroth dilution method; assay type: functional; conditions: Escherichia coli, 442, 18 h
Escherichia coli [23] = assay: Antimicrobial activity against Escherichia coli ATCC 25922 after 18 hrs by microbroth dilution method; assay type: functional; conditions: ATCC 25922, 18 h
Escherichia coli [24] = assay: Inhibition of RNA synthesis in Escherichia coli assessed as incorporation of [3H]uridine at 0.25 ug/mL by LKB Betaplate scintillation counter relative to control; assay type: functional; set-up: scale not given: the % may be the effect or the level left
Escherichia coli [25] = assay: Inhibition of protein synthesis in Escherichia coli assessed as incorporation of [3H]amino acid at 0.25 ug/mL by LKB Betaplate scintillation counter relative to control; assay type: functional; set-up: scale not given: the % may be the effect or the level left
Escherichia coli [26] = assay: Inhibition of DNA synthesis in Escherichia coli assessed as incorporation of [3H]thymidine at 0.25 ug/mL by LKB Betaplate scintillation counter relative to control; assay type: functional; set-up: scale not given: the % may be the effect or the level left
Escherichia coli [27] = assay: Inhibition of RNA synthesis in Escherichia coli assessed as incorporation of [3H]uridine at 25 ug/mL by LKB Betaplate scintillation counter relative to control; assay type: functional; set-up: scale not given: the % may be the effect or the level left
Escherichia coli [28] = assay: Inhibition of protein synthesis in Escherichia coli assessed as incorporation of [3H]amino acid at 25 ug/mL by LKB Betaplate scintillation counter relative to control; assay type: functional; set-up: scale not given: the % may be the effect or the level left
Escherichia coli [29] = assay: Inhibition of DNA synthesis in Escherichia coli assessed as incorporation of [3H]thymidine at 25 ug/mL by LKB Betaplate scintillation counter relative to control; assay type: functional; set-up: scale not given: the % may be the effect or the level left
Staphylococcus aureus [30] = assay: Antimicrobial activity against Staphylococcus aureus infected in CD1 mouse administered single oral dose after 7 days; assay type: functional; conditions: 168 h
Staphylococcus aureus [31] = assay: Antimicrobial activity against Staphylococcus aureus infected in CD1 mouse administered subcutaneously after 30 mins infection measured after 7 days; assay type: functional; conditions: sc
[32] = Ratio of LD50 for CD1 mouse to ED50 for Staphylococcus aureus infected in single subcutaneously dosed CD1 moue
Staphylococcus aureus [33] = assay: Antimicrobial activity against Staphylococcus aureus after 18 hrs by micro-broth dilution method; assay type: functional

CC(C)=CCC[C@@H](C)c1ccc(O)c(C)c1
Activity (Escherichia coli [1]): 34.04%
Activity (Escherichia coli [2]): 39.08%
Activity (Escherichia coli [3]): 50.02%
Activity (Escherichia coli [4]): 60.35%
Activity (Escherichia coli [5]): 66.73%
Activity (Escherichia coli [6]): 25.34%
Activity (Escherichia coli [7]): 39.06%
Activity (Escherichia coli [8]): 44.2%
Activity (Escherichia coli [9]): 52.28%
Activity (Escherichia coli [10]): 68%
MIC (Klebsiella pneumoniae): 32 µg/mL (≈ 147 µM)
MIC (Pseudomonas aeruginosa): > 128 µg/mL
MIC (Candida albicans): 128 µg/mL (≈ 586 µM)
Activity (Escherichia coli [11]): 30.71%
Activity (Escherichia coli [12]): 37.82%
Activity (Escherichia coli [13]): 48.24%
Activity (Escherichia coli [14]): 63.06%
Activity (Escherichia coli [15]): 75.57%
MIC (Staphylococcus aureus [16]): 16 µg/mL (≈ 73.3 µM)
MIC (Staphylococcus aureus [17]): 32 µg/mL (≈ 147 µM)
MIC (Staphylococcus aureus [18]): 16 µg/mL (≈ 73.3 µM)
MIC (Enterococcus faecium [19]): 16 µg/mL (≈ 73.3 µM)
MIC (Enterococcus faecium [20]): 16 µg/mL (≈ 73.3 µM)
MIC (Bacillus subtilis): 16 µg/mL (≈ 73.3 µM)
MIC (Escherichia coli [21]): 32 µg/mL (≈ 147 µM)
MIC (Escherichia coli [22]): > 128 µg/mL
MIC (Escherichia coli [23]): > 128 µg/mL

CO[C@H]1/C=C/O[C@@]2(C)Oc3c(C)c(O)c4c(O)c(c(/C=N/N5CCN(C)CC5)c(O)c4c3C2=O)NC(=O)/C(C)=C\C=C\[C@H](C)[C@H](O)[C@@H](C)[C@@H](O)[C@@H](C)[C@H](OC(C)=O)[C@@H]1C [RIFAMPIN]
Activity (Escherichia coli [24]): 1.17%
Activity (Escherichia coli [25]): 27.82%
Activity (Escherichia coli [26]): 89.56%

O=C(N[C@H](CO)[C@H](O)c1ccc([N+](=O)[O-])cc1)C(Cl)Cl [CHLORAMPHENICOL]
Activity (Escherichia coli [27]): 85.76%
Activity (Escherichia coli [28]): 18.96%
Activity (Escherichia coli [29]): 82.98%

CC1(C)S[C@@H]2[C@H](NC(=O)Cc3ccccc3)C(=O)N2[C@H]1C(=O)O [PENICILLIN G]
MIC (Klebsiella pneumoniae): 128 µg/mL (≈ 383 µM)
MIC (Pseudomonas aeruginosa): > 128 µg/mL
MIC (Candida albicans): > 128 µg/mL
MIC (Staphylococcus aureus [16]): 0.06 µg/mL (≈ 0.179 µM)
MIC (Staphylococcus aureus [17]): 64 µg/mL (≈ 191 µM)
MIC (Staphylococcus aureus [18]): 0.06 µg/mL (≈ 0.179 µM)
MIC (Enterococcus faecium [19]): 32 µg/mL (≈ 95.7 µM)
MIC (Enterococcus faecium [20]): 32 µg/mL (≈ 95.7 µM)
MIC (Bacillus subtilis): 32 µg/mL (≈ 95.7 µM)
MIC (Escherichia coli [21]): 2 µg/mL (≈ 5.98 µM)
MIC (Escherichia coli [23]): 128 µg/mL (≈ 383 µM)

CN[C@H](CC(C)C)C(=O)N[C@H]1C(=O)N[C@@H](CC(N)=O)C(=O)N[C@H]2C(=O)N[C@H]3C(=O)N[C@H](C(=O)N[C@H](C(=O)O)c4cc(O)cc(O)c4-c4cc3ccc4O)[C@H](O)c3ccc(c(Cl)c3)Oc3cc2cc(c3O[C@@H]2O[C@H](CO)[C@@H](O)[C@H](O)[C@H]2O[C@H]2C[C@](C)(N)[C@H](O)[C@H](C)O2)Oc2ccc(cc2Cl)[C@H]1O [VANCOMYCIN]
ED50 (Staphylococcus aureus [30]): 230 mg/kg
ED50 (Staphylococcus aureus [31]): 1 mg/kg
Ratio LD50/ED50 [32]: >1000

CC(C)=CCC[C@@H](C)c1ccc(C)c(O)c1 [XANTHORRIZOL]
Activity (Escherichia coli [1]): 1.91%
Activity (Escherichia coli [2]): 8.72%
Activity (Escherichia coli [3]): 48.56%
Activity (Escherichia coli [4]): 91.13%
Activity (Escherichia coli [5]): 96.87%
Activity (Escherichia coli [6]): 17.12%
Activity (Escherichia coli [7]): 23.39%
Activity (Escherichia coli [8]): 33.57%
Activity (Escherichia coli [9]): 96.92%
Activity (Escherichia coli [10]): 102.1%
MIC (Klebsiella pneumoniae): 32 µg/mL (≈ 147 µM)
MIC (Pseudomonas aeruginosa): > 128 µg/mL
MIC (Candida albicans): 128 µg/mL (≈ 586 µM)
ED50 (Staphylococcus aureus [31]): > 32 mg/kg
Activity (Escherichia coli [11]): 1.52%
Activity (Escherichia coli [12]): 7.03%
Activity (Escherichia coli [13]): 35.75%
Activity (Escherichia coli [14]): 99.98%
Activity (Escherichia coli [15]): 95.33%
MIC (Staphylococcus aureus [16]): 16 µg/mL (≈ 73.3 µM)
MIC (Staphylococcus aureus [17]): 32 µg/mL (≈ 147 µM)
MIC (Staphylococcus aureus [18]): 16 µg/mL (≈ 73.3 µM)
MIC (Enterococcus faecium [19]): 16 µg/mL (≈ 73.3 µM)
MIC (Enterococcus faecium [20]): 16 µg/mL (≈ 73.3 µM)
MIC (Bacillus subtilis): 16 µg/mL (≈ 73.3 µM)
MIC (Escherichia coli [21]): 32 µg/mL (≈ 147 µM)
MIC (Escherichia coli [22]): > 128 µg/mL
MIC (Escherichia coli [23]): > 128 µg/mL

C[C@@]12C[C@@]34CC[C@H]5[C@@](C)(CCC[C@]5(C)C(=O)O)[C@@H]3C[C@H]1[C@H]2C4
MIC (Staphylococcus aureus [33]): 128 µg/mL (≈ 423 µM)
